Results taken from ChEMBL document CHEMBL1125959, “Synthesis and DNA binding properties of an amidine-linked and phenyl-containing analogue of distamycin A” (Bioorg Med Chem Lett, 1991).

Columns and labels:
[1] = test system: Nucleic Acid; experiment: The apparent DNA binding constant to bind with calf thymus DNA was determined by ethidium displacement assay; type: nucleic-acid assay; settings: Bos taurus
[2] = test system: Nucleic Acid; experiment: The apparent DNA binding constant to bind with T4 DNA was determined by ethidium displacement assay; type: nucleic-acid assay

| K app [1] | K app [2] | SMILES |
| --- | --- | --- |
| 770000 M⁻¹ | – | Cn1cc(NC(=O)c2cc(NC(=O)c3cc(NC=O)cn3C)cn2C)cc1C(=O)NCCC(=N)N |
| 65000 M⁻¹ | 120000 M⁻¹ | CN(C)CC/N=C(\N)c1cccc(NC(=O)c2cccc(NC=O)c2)c1 |
